Results from the NIST ThermoML archive (doi:10.1016/j.jct.2011.09.011).
Numbers after ± are expanded uncertainties.

Assay: excess molar enthalpy (molar enthalpy of mixing); xn = mol fraction of the nth substance listed
Details: 101 kPa, Liquid, Parr 1455 solution calorimeter

CCCCCCCCCCO [decan-1-ol] + CC#N
Details | excess molar enthalpy [kcal/mol]
298.15 K, x1 = 0.0436 | 0.171 ± 0.00789
298.15 K, x1 = 0.0542 | 0.206 ± 0.00908
298.15 K, x1 = 0.0678 | 0.248 ± 0.0105
298.15 K, x1 = 0.079 | 0.279 ± 0.0117
298.15 K, x1 = 0.0919 | 0.313 ± 0.0131
298.15 K, x1 = 0.1077 | 0.351 ± 0.0146
298.15 K, x1 = 0.127 | 0.393 ± 0.0163
298.15 K, x1 = 0.1509 | 0.44 ± 0.0179
298.15 K, x1 = 0.181 | 0.491 ± 0.0201
298.15 K, x1 = 0.2197 | 0.546 ± 0.0222
298.15 K, x1 = 0.271 | 0.607 ± 0.0239
298.15 K, x1 = 0.3415 | 0.671 ± 0.0263
298.15 K, x1 = 0.3857 | 0.699 ± 0.0287
298.15 K, x1 = 0.4394 | 0.72 ± 0.0287
298.15 K, x1 = 0.5058 | 0.724 ± 0.0287
298.15 K, x1 = 0.5895 | 0.694 ± 0.0287
298.15 K, x1 = 0.6985 | 0.596 ± 0.0239
298.15 K, x1 = 0.78 | 0.482 ± 0.0198
298.15 K, x1 = 0.8433 | 0.372 ± 0.0153
298.15 K, x1 = 0.9159 | 0.222 ± 0.00932
303.15 K, x1 = 0.0586 | 0.245 ± 0.0103
303.15 K, x1 = 0.0678 | 0.274 ± 0.0115
303.15 K, x1 = 0.079 | 0.306 ± 0.0129
303.15 K, x1 = 0.0919 | 0.342 ± 0.0141
303.15 K, x1 = 0.1077 | 0.38 ± 0.0155
303.15 K, x1 = 0.127 | 0.419 ± 0.0172
303.15 K, x1 = 0.1509 | 0.462 ± 0.0189
303.15 K, x1 = 0.181 | 0.506 ± 0.0206
303.15 K, x1 = 0.2197 | 0.559 ± 0.0227
303.15 K, x1 = 0.271 | 0.622 ± 0.0263
303.15 K, x1 = 0.3415 | 0.689 ± 0.0287
303.15 K, x1 = 0.3857 | 0.713 ± 0.0287
303.15 K, x1 = 0.4394 | 0.732 ± 0.0287
303.15 K, x1 = 0.5058 | 0.736 ± 0.0287
303.15 K, x1 = 0.5895 | 0.711 ± 0.0287
303.15 K, x1 = 0.6985 | 0.628 ± 0.0263
303.15 K, x1 = 0.78 | 0.512 ± 0.0208
303.15 K, x1 = 0.8433 | 0.396 ± 0.0163
303.15 K, x1 = 0.9159 | 0.243 ± 0.01
308.15 K, x1 = 0.0748 | 0.279 ± 0.0117
308.15 K, x1 = 0.1008 | 0.347 ± 0.0143
308.15 K, x1 = 0.1409 | 0.437 ± 0.0179
308.15 K, x1 = 0.1866 | 0.524 ± 0.0215
308.15 K, x1 = 0.2546 | 0.637 ± 0.0263
308.15 K, x1 = 0.3186 | 0.714 ± 0.0287
308.15 K, x1 = 0.4096 | 0.794 ± 0.0335
308.15 K, x1 = 0.4314 | 0.796 ± 0.0335
308.15 K, x1 = 0.455 | 0.794 ± 0.0335
308.15 K, x1 = 0.4807 | 0.788 ± 0.0311
308.15 K, x1 = 0.5088 | 0.78 ± 0.0311
308.15 K, x1 = 0.5395 | 0.767 ± 0.0311
308.15 K, x1 = 0.5734 | 0.75 ± 0.0311
308.15 K, x1 = 0.6109 | 0.724 ± 0.0287
308.15 K, x1 = 0.6525 | 0.686 ± 0.0287
308.15 K, x1 = 0.6991 | 0.636 ± 0.0263
308.15 K, x1 = 0.7515 | 0.567 ± 0.0232
308.15 K, x1 = 0.8108 | 0.471 ± 0.0194
308.15 K, x1 = 0.8785 | 0.336 ± 0.0139
308.15 K, x1 = 0.9566 | 0.142 ± 0.00621

CCCCCCCCCO [nonan-1-ol] + CC#N
excess molar enthalpy [kcal/mol]
Details | 298.15 K | 303.15 K | 308.15 K
x1 = 0.0899 | 0.254 ± 0.0108 | 0.297 ± 0.0124 | 0.307 ± 0.0127
x1 = 0.1141 | 0.303 ± 0.0127 | 0.35 ± 0.0143 | 0.364 ± 0.0151
x1 = 0.1501 | 0.365 ± 0.0151 | 0.42 ± 0.0172 | 0.441 ± 0.0182
x1 = 0.1975 | 0.433 ± 0.0179 | 0.5 ± 0.0206 | 0.525 ± 0.0215
x1 = 0.2673 | 0.515 ± 0.0213 | 0.593 ± 0.0239 | 0.627 ± 0.0263
x1 = 0.3318 | 0.573 ± 0.0237 | 0.65 ± 0.0263 | 0.689 ± 0.0287
x1 = 0.4217 | 0.626 ± 0.0263 | 0.708 ± 0.0287 | 0.745 ± 0.0311
x1 = 0.443 | 0.632 ± 0.0263 | 0.71 ± 0.0287 | 0.742 ± 0.0311
x1 = 0.4659 | 0.636 ± 0.0263 | 0.709 ± 0.0287 | 0.738 ± 0.0311
x1 = 0.4906 | 0.639 ± 0.0263 | 0.706 ± 0.0287 | 0.73 ± 0.0287
x1 = 0.5175 | 0.637 ± 0.0263 | 0.701 ± 0.0287 | 0.72 ± 0.0287
x1 = 0.5468 | 0.631 ± 0.0263 | 0.69 ± 0.0287 | 0.705 ± 0.0287
x1 = 0.5787 | 0.619 ± 0.0263 | 0.672 ± 0.0263 | 0.685 ± 0.0287
x1 = 0.6138 | 0.601 ± 0.0239 | 0.647 ± 0.0263 | 0.659 ± 0.0263
x1 = 0.6524 | 0.573 ± 0.0234 | 0.616 ± 0.0239 | 0.625 ± 0.0263
x1 = 0.695 | 0.534 ± 0.0217 | 0.573 ± 0.0234 | 0.583 ± 0.0237
x1 = 0.7425 | 0.482 ± 0.0196 | 0.515 ± 0.021 | 0.529 ± 0.0215
x1 = 0.7955 | 0.414 ± 0.017 | 0.436 ± 0.0179 | 0.455 ± 0.0186
x1 = 0.8552 | 0.323 ± 0.0134 | 0.341 ± 0.0141 | 0.355 ± 0.0146
x1 = 0.9228 | 0.197 ± 0.00837 | 0.21 ± 0.00884 | 0.216 ± 0.00908
